EPA's ToxRefDB 2

What was measured:
dog = settings: Chronic toxicity, beagle, Oral, Feed, dose end: 24 month
rat [1] = settings: Combined chronic toxicity/carcinogenicity, fischer, Oral, Feed, dose end: 104 week
rat [2] = settings: Subchronic oral toxicity in rodents, sprague dawley, Feed, dose end: 6 month
rat [3] = settings: Prenatal developmental toxicity study, sprague dawley, Oral, Gavage/Intubation, dose end: 20 GD
rat [4] = settings: Multigenerational reproductive toxicity study, sprague dawley, Oral, Feed, dose end: 2 generation
rabbit [5] = settings: Prenatal developmental toxicity study, himalayan, Oral, Gavage/Intubation, dose end: 28 GD
rabbit [6] = settings: Prenatal developmental toxicity study, new zealand white, Oral, Water, dose end: 19 GD
rat [7] = settings: Subchronic oral toxicity in rodents, sprague dawley, Gavage/Intubation, dose end: 19 GD
rat [8] = settings: Multigenerational reproductive toxicity study, wistar, Oral, Feed, dose end: 2 generation
rat [9] = settings: Multigenerational reproductive toxicity study, sprague dawley, Oral, Feed, dose end: 2 generation, systemic / hematology / erythrocyte (rbc) count differential / erythrocyte (rbc) + systemic / hematology / hematocrit (hct) / hematocrit (…
rabbit [10] = settings: Prenatal developmental toxicity study, new zealand white, Oral, Gavage/Intubation, dose end: 18 GD
rat [11] = settings: Prenatal developmental toxicity study, sprague dawley, Oral, Gavage/Intubation, dose end: 17 GD
rat [12] = settings: Multigenerational reproductive toxicity study, wistar, Oral, Feed, dose end: 2 generation; remark: listed apart in the source
rat [13] = settings: Prenatal developmental toxicity study, wistar, Oral, Gavage/Intubation, dose end: 19 GD
rabbit [14] = settings: Prenatal developmental toxicity study, himalayan, Oral, Gavage/Intubation, dose end: 28 GD; remark: listed apart in the source
[15] = group: cholinesterase, cholinesterase / cholinesterase / cholinesterase / erythrocyte cholinesterase (che)
[16] = group: cholinesterase, cholinesterase / cholinesterase / cholinesterase / plasma cholinesterase (che)
[17] = group: systemic, systemic / organ weight / liver / absolute + systemic / organ weight / liver / relative to body weight
[18] = group: cholinesterase, cholinesterase / cholinesterase / cholinesterase / brain cholinesterase (che) + cholinesterase / cholinesterase / cholinesterase / plasma …
[19] = group: systemic, systemic / clinical chemistry / cholesterol / cholesterol + systemic / hematology / erythrocyte (rbc) count differential / erythrocyte (rbc…
[20] = group: cholinesterase, cholinesterase / cholinesterase / cholinesterase / erythrocyte cholinesterase (che) + cholinesterase / cholinesterase / cholinesterase / …
[21] = group: systemic, systemic / clinical chemistry / alanine aminotransferase (alt/sgpt) / alanine aminotransferase (alt/sgpt)
[22] = group: developmental, developmental / developmental malformation / bone / [other] + developmental / developmental malformation / bone / delayed ossification + …
[23] = group: maternal, systemic / in life observation / body weight / body weight gain
[24] = group: offspring, systemic / in life observation / body weight / offspring (pup) weight + systemic / in life observation / body weight / offspring (pup) …
[25] = group: parental, systemic / organ weight / kidney / absolute + systemic / organ weight / kidney / relative to body weight + systemic / pathology microscopic…
[26] = group: developmental, developmental / developmental malformation / general / crown-rump length + systemic / in life observation / body weight / fetal weight
[27] = group: maternal, reproductive / reproductive performance / premature delivery / premature delivery + systemic / in life observation / body weight / body …
[28] = group: developmental, developmental / developmental malformation / other / other + systemic / in life observation / body weight / fetal weight
[29] = group: maternal, systemic / in life observation / clinical signs / defecation + systemic / in life observation / food consumption / food consumption + …
[30] = group: developmental, developmental / developmental malformation / bone / ossification sites + developmental / developmental malformation / bone / supernumerary
[31] = group: systemic, systemic / in life observation / body weight / body weight + systemic / in life observation / body weight / body weight gain + systemic / in…
[32] = group: maternal, reproductive / reproductive performance / fertility / fertility + reproductive / reproductive performance / precoital interval / precoital …
[33] = group: offspring, developmental / offspring survival late / viability index / viability index
[34] = group: offspring, developmental / offspring survival late / viability index / viability index + reproductive / offspring survival early / dead fetuses / dead …
[35] = group: parental, systemic / in life observation / body weight / body weight + systemic / in life observation / body weight / body weight gain + systemic / in…
[36] = group: reproductive, reproductive / reproductive performance / gestational length / gestational length + reproductive / reproductive performance / gestation …
[37] = group: developmental, developmental / developmental malformation / bone / incomplete ossification + developmental / developmental malformation / bone / short + …
[38] = group: maternal, reproductive / reproductive performance / resorptions / resorptions + systemic / in life observation / body weight / body weight + systemic…
[39] = group: developmental, developmental / developmental malformation / bone / incomplete ossification + systemic / in life observation / body weight / fetal weight
[40] = group: maternal, systemic / in life observation / body weight / body weight gain + systemic / in life observation / clinical signs / alopecia + systemic / in…
[41] = group: parental, systemic / in life observation / body weight / body weight gain
[42] = group: developmental, developmental / developmental malformation / aortic arch / narrowed + developmental / developmental malformation / bone / [other] + …
[43] = group: developmental, developmental / developmental malformation / bone / incomplete ossification + developmental / developmental malformation / bone / wavy + …
[44] = group: maternal, systemic / in life observation / body weight / body weight + systemic / in life observation / body weight / body weight gain + systemic / in…
[45] = group: developmental, developmental / developmental malformation / liver / [other]
[46] = group: maternal, reproductive / reproductive performance / aborted / aborted + systemic / in life observation / body weight / body weight gain + systemic / …

## CCOP(=S)(OCC)Oc1nc(Cl)c(Cl)cc1Cl [Chlorpyrifos]
dog; [15]
  LEL: 0.01 mg/kg/day
  NEL: < 0.01 mg/kg/day
dog; [16]
  LOAEL: 0.03 mg/kg/day
dog; group: cholinesterase, cholinesterase / cholinesterase / cholinesterase / plasma cholinesterase (che) + cholinesterase / cholinesterase / cholinesterase / …
  NOAEL: 0.01 mg/kg/day
dog; [17]
  LEL: 3 mg/kg/day
  LOAEL: > 3 mg/kg/day
  NEL: 1 mg/kg/day
  NOAEL: ≥ 3 mg/kg/day
Rat [1]; [18]
  LOAEL: 1 mg/kg/day
  NEL: 0.05 mg/kg/day
  NOAEL: 0.1 mg/kg/day
Rat [1]; [16]
  LEL: 0.1 mg/kg/day
Rat [1]; group: systemic, systemic / clinical chemistry / cholesterol / cholesterol + systemic / clinical chemistry / alkaline phosphatase (alp/alk) / alkaline …
  LEL: 1 mg/kg/day
Rat [1]; [19]
  LOAEL: > 10 mg/kg/day
  NOAEL: ≥ 10 mg/kg/day
Rat [1]; group: systemic, systemic / clinical chemistry / cholesterol / cholesterol + systemic / in life observation / body weight / body weight + systemic / …
  NEL: 0.1 mg/kg/day
Rat [2]; [20]
  LEL: 0.75 mg/kg/day
  LOAEL: 0.75 mg/kg/day
  NEL: 0.15 mg/kg/day
  NOAEL: 0.15 mg/kg/day
Rat [2]; [21]
  LEL: 0.15 mg/kg/day
  LOAEL: > 0.75 mg/kg/day
  NEL: 0.03 mg/kg/day
  NOAEL: ≥ 0.75 mg/kg/day

## O=C(NCc1ncc(C(F)(F)F)cc1Cl)c1c(Cl)cccc1Cl [Fluopicolide]
Rat [3]; [22]
  LEL: 700 mg/kg/day
  LOAEL: 700 mg/kg/day
  NEL: 60 mg/kg/day
  NOAEL: 60 mg/kg/day
Rat [3]; [23]
  LEL: 700 mg/kg/day
  LOAEL: 700 mg/kg/day
  NEL: 60 mg/kg/day
  NOAEL: 60 mg/kg/day
Rat [4]; [24]
  LEL: 180 mg/kg/day
  LOAEL: 180 mg/kg/day
  NEL: 43.7 mg/kg/day
  NOAEL: 43.7 mg/kg/day
Rat [4]; [25]
  LEL: 145 mg/kg/day
  LOAEL: 145 mg/kg/day
  NEL: 36.4 mg/kg/day
  NOAEL: 36.4 mg/kg/day
Rabbit [5]; [26]
  LEL: 60 mg/kg/day
  LOAEL: 60 mg/kg/day
  NEL: 20 mg/kg/day
  NOAEL: 20 mg/kg/day
Rabbit [5]; [27]
  LEL: 60 mg/kg/day
  LOAEL: 60 mg/kg/day
  NEL: 20 mg/kg/day
  NOAEL: 20 mg/kg/day

## [Na+].[O-][Cl+][O-] [Sodium chlorite]
Rabbit [6]; [28]
  LEL: 35.5 mg/kg/day
  LOAEL: 35.5 mg/kg/day
  NEL: 13 mg/kg/day
  NOAEL: 13 mg/kg/day
Rabbit [6]; [29]
  LEL: 35.5 mg/kg/day
  LOAEL: 35.5 mg/kg/day
  NEL: 13 mg/kg/day
  NOAEL: 13 mg/kg/day

## CC(=O)OC(C)(C)C [tert-Butyl acetate]
Rat [7]; [30]
  LEL: 800 mg/kg/day
  LOAEL: > 1600 mg/kg/day
  NEL: 400 mg/kg/day
  NOAEL: ≥ 1600 mg/kg/day
Rat [7]; [31]
  LEL: 1600 mg/kg/day
  LOAEL: > 1600 mg/kg/day
  NEL: 800 mg/kg/day
  NOAEL: ≥ 1600 mg/kg/day

## Fc1ccc([C@@]2(Cn3cncn3)O[C@@H]2c2ccccc2Cl)cc1 [Epoxiconazole]
Rat [8]; [32]
  LEL: 22.1 mg/kg/day
  LOAEL: 22.1 mg/kg/day
  NEL: 2.17 mg/kg/day
  NOAEL: 2.17 mg/kg/day
Rat [8]; [33]
  LEL: 0.85 mg/kg/day
  NEL: < 0.85 mg/kg/day
Rat [8]; [34]
  LOAEL: 22.1 mg/kg/day
  NOAEL: 2.17 mg/kg/day
Rat [8]; [35]
  LEL: 22.1 mg/kg/day
  LOAEL: 22.1 mg/kg/day
  NEL: 2.17 mg/kg/day
  NOAEL: 2.17 mg/kg/day
Rat [8]; [36]
  LEL: 31.9 mg/kg/day
  LOAEL: 31.9 mg/kg/day
  NEL: 2.41 mg/kg/day
  NOAEL: 2.41 mg/kg/day

## O=C(Nc1ccc(F)cc1)c1cccc(Oc2cccc(C(F)(F)F)c2)n1 [Picolinafen]
Rat [9]; group: offspring
  LEL: 21 mg/kg/day
  LOAEL: > 43 mg/kg/day
  NEL: 4.3 mg/kg/day
  NOAEL: ≥ 43 mg/kg/day
Rat [9]; group: parental
  LEL: 19 mg/kg/day
  LOAEL: 19 mg/kg/day
  NEL: 3.7 mg/kg/day
  NOAEL: 3.7 mg/kg/day

## Cc1cccc(C)c1NC(=O)c1ccc(N)cc1 [Ameltolide]
Rabbit [10]; [37]
  LEL: 100 mg/kg/day
  LOAEL: > 100 mg/kg/day
  NEL: 50 mg/kg/day
  NOAEL: ≥ 100 mg/kg/day
Rabbit [10]; [38]
  LEL: 100 mg/kg/day
  LOAEL: > 100 mg/kg/day
  NEL: 50 mg/kg/day
  NOAEL: ≥ 100 mg/kg/day
Rat [11]; [39]
  LEL: 50 mg/kg/day
  LOAEL: > 50 mg/kg/day
  NEL: 25 mg/kg/day
  NOAEL: ≥ 50 mg/kg/day
Rat [11]; [40]
  LEL: 50 mg/kg/day
  LOAEL: > 50 mg/kg/day
  NEL: 25 mg/kg/day
  NOAEL: ≥ 50 mg/kg/day

## CCOC(=O)OC1=C(c2cc(C)ccc2C)C(=O)NC12CCC(OC)CC2 (stereo not drawn) [Spirotetramat]
Rat [12]; [24]
  LOAEL: 487 mg/kg/day
  NEL: 19.3 mg/kg/day
  NOAEL: 79.5 mg/kg/day
Rat [12]; group: offspring, systemic / in life observation / body weight / offspring (pup) weight gain
  LEL: 79.5 mg/kg/day
Rat [12]; [41]
  LEL: 419 mg/kg/day
  LOAEL: 419 mg/kg/day
  NEL: 70.7 mg/kg/day
  NOAEL: 70.7 mg/kg/day
Rat [13]; [42]
  LOAEL: 1000 mg/kg/day
  NOAEL: 140 mg/kg/day
Rat [13]; [43]
  LEL: 20 mg/kg/day
  NEL: < 20 mg/kg/day
Rat [13]; group: maternal, systemic / in life observation / body weight / body weight
  LEL: 140 mg/kg/day
Rat [13]; [44]
  LOAEL: 1000 mg/kg/day
  NEL: 20 mg/kg/day
  NOAEL: 140 mg/kg/day
Rabbit [14]; [45]
  LEL: 160 mg/kg/day
  LOAEL: > 160 mg/kg/day
  NEL: 40 mg/kg/day
  NOAEL: ≥ 160 mg/kg/day
Rabbit [14]; [46]
  LEL: 40 mg/kg/day
  LOAEL: 40 mg/kg/day
  NEL: 10 mg/kg/day
  NOAEL: 10 mg/kg/day
